# Like-named read-outs stand apart in the source and are kept apart here.
# Legend:
# human M2R–M5R = assay: Ca2+ mobilization assay, PAM activity (with EC20 ACh), CHO‐K1 cells; assay type: cell-based; settings: inflection point, EC20 concentration of ACh, read-out: PAM activity IP
# Procedure: (§1) Chinese hamster ovary (CHO)‐K1 cells expressing M1R–M5R were plated on a 96‐well black, clear bottom plate at 30 000 cells/well and incubated at 37°C in an atmosphere of 5% CO2 for 1 day. On the day of the assay, cells were incubated with calcium dye buffer (Hanks’ Balanced Salt Solution (HBSS) containing 20 mmol/L HEPES, 0.1% fatty acid‐free bovine serum albumin (BSA), 0.08% pluronic F127 (Dojindo Laboratories), 2.5 μg/mL Fluo‐4 (Dojindo Laboratories), and 1.25 mmol/L probenecid (Dojindo Laboratories)) for 30 minutes at 37°C in an atmosphere of 5% CO2 and then incubated for 30 minutes at room temperature. To measure Ca^2+ mobilization using CellLux (PerkinElmer), cells were stimulated with T‐495 or MK‐7622 (0.01‐1000 nmol/L for PAM activity; 0.3‐10 000 nmol/L for agonist activity) in assay buffer (HBSS containing 20 mmol/L HEPES and 0.1% fatty acid‐free BSA) with or without an EC20 concentration of ACh. The inflection point (IP) and EC50 values were calculated using the following equation by GraphPad Prism 5 software (GraphPad Software Inc): Y=Bottom+(Top-Bottom)/1+10^(Log IPorEC50-X×HillSlope))
# (§2) where X and Y are the log concentration of a compound and the percentage of Ca^2+ response, respectively, and Top and Bottom are the upper and lower plateaus, respectively.
# [1] = system: IP1 production in the rat hippocampus; assay: In vivo IP1 assay, rat hippocampus; settings: LiCl 10 mmol/kg s.c., vs vehicle
# Procedure: (§3) Eight‐week‐old Long‐Evans rats, 8‐ to 9‐week‐old C57BL/6J mice, and 22‐ or 29‐week‐old M1R KO mice and their WT littermates were used in this study. On the day of the experiment, animals were placed in individual cages and acclimated for more than 1 hour. A test compound or vehicle was administered 2 hours before the animals were sacrificed. […] LiCl (10 mmol/kg, s.c.) was injected 1 hour before sacrifice. In the repeated administration study, a test compound was administered to mice once daily for 13 days; on day 14, animals were treated with a test compound and LiCl (10 mmol/kg, s.c.) and then sacrificed. Animals were killed by decapitation, and blood was collected into tubes containing ethylenediaminetetraacetic acid for pharmacokinetic analysis; brains were quickly dissected, frozen on dry ice, and stored at −80°C until analysis. Brain tissues were homogenized in 19 (for rat tissues) or 39 (for mouse tissue) volumes of homogenization buffer (10 mmol/L HEPES pH 7.4, 50 mmol/L LiCl, 150 mmol/L NaCl, and 1% Triton X‐100), and the homogenate was incubated on a rotator for 1 hour, followed by centrifugation. The supernatant was diluted with 39 (for rat tissues) or 19 (for mouse tissues) volumes of dilution buffer (10 mmol/L HEPES pH 7.4, 50 mmol/L LiCl, and 150 mmol/L NaCl). IP1 and protein concentrations in the diluted supernatant were measured using IP‐One HTRF assay kit (Cisbio Bioassays) and BCA Protein Assay Kit (Thermo Fisher Scientific Inc), respectively, according to the manufacturers’ instructions. IP1 production was expressed as the ratio of IP1 to protein concentrations.
# [2] = Concentrations in rat plasma and brain (IP1 study); assay type: in vivo; settings: Long-Evans, po, mean ± SD; for Kp at 2 h: brain/plasma, read-out: Kp (brain‐to‐plasma concentration ratio)
# Procedure: as §3
# human M1R = biological target: T1, human M1R (Homo sapiens, UniProt P11229); assay: Ca2+ mobilization assay, PAM activity (with EC20 ACh), CHO‐K1 cells; assay type: cell-based; design: expressed in transfected cells; host or cells: CHO-K1
# T1 sequence (P11229 1-460): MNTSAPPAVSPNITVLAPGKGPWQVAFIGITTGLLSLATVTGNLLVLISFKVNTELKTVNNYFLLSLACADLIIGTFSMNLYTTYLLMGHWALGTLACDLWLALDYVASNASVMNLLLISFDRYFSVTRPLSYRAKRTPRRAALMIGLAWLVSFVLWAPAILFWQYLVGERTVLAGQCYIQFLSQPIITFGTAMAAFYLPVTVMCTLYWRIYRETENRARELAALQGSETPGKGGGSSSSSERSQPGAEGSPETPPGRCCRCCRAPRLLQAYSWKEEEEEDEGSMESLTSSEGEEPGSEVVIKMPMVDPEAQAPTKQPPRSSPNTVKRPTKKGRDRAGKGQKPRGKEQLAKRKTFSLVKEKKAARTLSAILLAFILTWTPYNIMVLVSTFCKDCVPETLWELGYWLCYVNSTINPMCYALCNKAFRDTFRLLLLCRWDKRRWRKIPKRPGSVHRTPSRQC
# Procedure: as §1, §2
# SD rats = system: SD rats
# Procedure: Seven‐ or 8‐week‐old SD rats were individually placed into observation cages. After an acclimation period of at least 1 hour, a test compound was administered to the rats. […] Cholinergic side effects, including diarrhea, lacrimation, salivation, miosis, and fasciculation, were assessed blindly, as described previously,27 and convulsion was scored using a modified Racine scale,37 as follows: stage 0, normal; stage 1, immobility; stage 2, forelimb and/or tail extension and rigid posture; stage 3, repetitive movements, head nodding, and gnawing; stage 4, rearing and falling; stage 5, continuous rearing and falling; stage 6, severe tonic‐clonic seizure with loss of postural control; and stage 7, death in the first 2 hours.
# [3] = brain (hippocampus), rat hippocampus, 3 mg/kg p.o., read-out: Brain concentration
# [4] = brain (hippocampus), rat hippocampus, 10 mg/kg p.o., read-out: Brain concentration
# [5] = plasma, rat, 3 mg/kg p.o., n = 6, read-out: Plasma concentration
# [6] = plasma, rat, 10 mg/kg p.o., n = 6, read-out: Plasma concentration
# [7] = rats, 1 mg/kg p.o., observed 15 min to 8 h, rats with effect/total
# [8] = rats, 3 mg/kg p.o., observed 15 min to 8 h, rats with effect/total
# [9] = rats, 10 mg/kg p.o., observed 15 min to 8 h, rats with effect/total
# [10] = rats, 30 mg/kg p.o., observed 15 min to 8 h, rats with effect/total
# [11] = rats, 100 mg/kg p.o., observed 15 min to 8 h, rats with effect/total
# [12] = rats, T-495 0.3 mg/kg p.o. alone, combination study, rats with effect/total
# [13] = rats, donepezil 0.1 mg/kg + T-495 0.3 mg/kg p.o., rats with effect/total
compound,measurement,setting,value
"Cc1ccc(Cc2cc3c(=O)n([C@H]4CCCC[C@@H]4O)cnc3c3ccccc23)cn1 [MK‐7622, 3‐((1S,2S)‐2‐hydroxycyclohexyl)‐6‐((6‐methylpyridin‐3‐yl)methyl)benzo[h]quinazolin‐4(3H)‐one, reference compound]",EC50,human M2R–M5R,> 1000 nM
same,IP1 production in the rat hippocampus,[1]; 10 mg/kg p.o.,significantly increased
same,concentration at 2 h,"[2]; brain (hippocampus), rat hippocampus, 1 mg/kg p.o., read-out: Brain concentration",14.5 ± 6.3 ng/g
same,concentration at 2 h,[2]; [3],39.3 ± 5.6 ng/g
same,concentration at 2 h,[2]; [4],220 ± 72.2 ng/g
same,Kp at 2 h,"[2]; rat, 1 mg/kg p.o.",0.14 ± 0.04
same,Kp at 2 h,"[2]; rat, 3 mg/kg p.o.",0.19 ± 0.04
same,Kp at 2 h,"[2]; rat, 10 mg/kg p.o.",0.23 ± 0.02
same,concentration at 2 h,"[2]; plasma, rat, 1 mg/kg p.o., n = 6, read-out: Plasma concentration",99.2 ng/mL
same,concentration at 2 h,[2]; [5],218 ± 42.9 ng/mL
same,concentration at 2 h,[2]; [6],944 ± 246 ng/mL
same,EC50,human M1R,1.32 nM
same,Convulsion,"SD rats; SD, rat, in vivo, po, 3 mg/kg",0/6
same,Fasciculation,"SD rats; SD, rat, in vivo, po, 3 mg/kg",0/6
same,Lacrimation,"SD rats; SD, rat, in vivo, po, 3 mg/kg",0/6
same,Loose or mucous stool or diarrhea,"SD rats; SD, rat, in vivo, po, 3 mg/kg",2/6
same,Miosis,"SD rats; SD, rat, in vivo, po, 3 mg/kg",0/6
same,Salivation,"SD rats; SD, rat, in vivo, po, 3 mg/kg",0/6
same,Convulsion,"SD rats; SD, rat, in vivo, po, 10 mg/kg",0/6
same,Fasciculation,"SD rats; SD, rat, in vivo, po, 10 mg/kg",0/6
same,Lacrimation,"SD rats; SD, rat, in vivo, po, 10 mg/kg",0/6
same,Loose or mucous stool or diarrhea,"SD rats; SD, rat, in vivo, po, 10 mg/kg",3/6
same,Miosis,"SD rats; SD, rat, in vivo, po, 10 mg/kg",0/6
same,Salivation,"SD rats; SD, rat, in vivo, po, 10 mg/kg",0/6
same,Convulsion,"SD rats; SD, rat, in vivo, po, 30 mg/kg",0/6
same,Fasciculation,"SD rats; SD, rat, in vivo, po, 30 mg/kg",0/6
same,Lacrimation,"SD rats; SD, rat, in vivo, po, 30 mg/kg",0/6
same,Loose or mucous stool or diarrhea,"SD rats; SD, rat, in vivo, po, 30 mg/kg",6/6
same,Miosis,"SD rats; SD, rat, in vivo, po, 30 mg/kg",0/6
same,Salivation,"SD rats; SD, rat, in vivo, po, 30 mg/kg",0/6
same,"dose difference between memory improvement and induction of cholinergic side effects, including diarrhea","SD rats; rat, in vivo",onefold
same,diarrhea score,"SD rats; rat, in vivo, po, 3 mg/kg",tended to increase
"Cc1c(Cc2ccc(Cl)nc2)cc2c(c1Cl)OCN([C@H]1CCC[C@@H]1O)C2=O [T‐495, 8‐chloro‐6‐((6‐chloropyridin‐3‐yl)methyl)‐3‐((1S,2S)‐2‐hydroxycyclopentyl)‐7‐methyl‐2,3‐dihydro‐4H‐1,3‐benzoxazin‐4‐one]",EC50,human M2R–M5R,> 1000 nM
same,IP1 production in the rat hippocampus,[1]; 10 mg/kg p.o.,significantly increased
same,IP1 production in the rat hippocampus,[1]; 30 mg/kg p.o.,significantly increased
same,concentration at 2 h,[2]; [3],66.2 ± 18.5 ng/g
same,concentration at 2 h,[2]; [4],304 ± 82.8 ng/g
same,concentration at 2 h,"[2]; brain (hippocampus), rat hippocampus, 30 mg/kg p.o., read-out: Brain concentration",1000 ± 330 ng/g
same,Kp at 2 h,"[2]; rat, 3 mg/kg p.o.",1.4 ± 0.1
same,Kp at 2 h,"[2]; rat, 10 mg/kg p.o.",1 ± 0.1
same,Kp at 2 h,"[2]; rat, 30 mg/kg p.o.",1 ± 0.1
same,concentration at 2 h,[2]; [5],49.6 ± 14.5 ng/mL
same,concentration at 2 h,[2]; [6],298 ± 75.2 ng/mL
same,concentration at 2 h,"[2]; plasma, rat, 30 mg/kg p.o., n = 6, read-out: Plasma concentration",1050 ± 358 ng/mL
same,EC50,human M1R,2.29 nM
same,"dose difference between memory improvement and induction of cholinergic side effects, including diarrhea",SD rats; rats,100 fold
same,Convulsion,SD rats; [7],0/6
same,Fasciculation,SD rats; [7],0/6
same,Lacrimation,SD rats; [7],0/6
same,Loose or mucous stool or diarrhea,SD rats; [7],0/6
same,Miosis,SD rats; [7],0/6
same,Salivation,SD rats; [7],0/6
same,Convulsion,SD rats; [8],0/6
same,Fasciculation,SD rats; [8],0/6
same,Lacrimation,SD rats; [8],0/6
same,Loose or mucous stool or diarrhea,SD rats; [8],0/6
same,Miosis,SD rats; [8],0/6
same,Salivation,SD rats; [8],0/6
same,Convulsion,SD rats; [9],0/6
same,Fasciculation,SD rats; [9],0/6
same,Lacrimation,SD rats; [9],0/6
same,Loose or mucous stool or diarrhea,SD rats; [9],0/6
same,Miosis,SD rats; [9],0/6
same,Salivation,SD rats; [9],0/6
same,Convulsion,SD rats; [10],0/6
same,Fasciculation,SD rats; [10],0/6
same,Lacrimation,SD rats; [10],0/6
same,Loose or mucous stool or diarrhea,SD rats; [10],0/6
same,Miosis,SD rats; [10],0/6
same,Salivation,SD rats; [10],0/6
same,Convulsion,SD rats; [11],1/6
same,Fasciculation,SD rats; [11],0/6
same,Lacrimation,SD rats; [11],0/6
same,Loose or mucous stool or diarrhea,SD rats; [11],5/6
same,Miosis,SD rats; [11],0/6
same,Salivation,SD rats; [11],1/6
same,diarrhea score,"SD rats; rats, 100 mg/kg p.o., vs vehicle",significantly increased
same,Convulsion,SD rats; [12],0/6
same,Fasciculation,SD rats; [12],0/6
same,Lacrimation,SD rats; [12],0/6
same,"Loose, mucous stool, or diarrhea",SD rats; [12],0/6
same,Myosis,SD rats; [12],0/6
same,Salivation,SD rats; [12],0/6
same,"cholinergic side effects, combination with donepezil","SD rats; rats, T‐495 0.3 mg/kg + donepezil 0.1 mg/kg",no cholinergic side effects were observed
same,Convulsion,SD rats; [13],0/6
same,Fasciculation,SD rats; [13],0/6
same,Lacrimation,SD rats; [13],0/6
same,"Loose, mucous stool, or diarrhea",SD rats; [13],0/6
same,Myosis,SD rats; [13],0/6
same,Salivation,SD rats; [13],0/6
same,cholinergic side effects,"SD rats; rats, doses up to 30 mg/kg p.o.",did not elicit any cholinergic side effects
